Laboratory results from US6635265B1, “Materials and methods useful for the control of insect larvae” (University of Florida Research Foundation, Inc., priority 1999, dated 2003).
Square brackets hold non-standard residues; d marks the D form. Ends that are not written are not given here.

Legend:
mosquito larvae = experiment: Feeding TMOF and its analogue peptides to mosquito larvae (LD50); assay type: in vivo, Aedes aegypti; conditions: 100 μl microtiter plates, 7 days, diet of autoclaved yeast (1 mg/ml)
Excerpt: TMOF can traverse the gut epithelium, enter the hemolymph and bind a gut receptor (Borovsky, D. and F. Mahmood (1995) “Feeding the mosquito Aedes aegypti with TMOF and its analogs; effect on trypsin biosynthesis and egg development,” Regulatory Peptides 57:273-281.; Borovsky, D., C. A. Powell, J. K. Nayar, J. E. Blalock, and T. K. Hayes (1994) “Characterization and localization of mosquito-gut receptors for trypsin modulating oostatic factor using complementary peptide immunochemistry” FASEB J. 8:350-355.). […] This characteristic permits testing of TMOF and its analogs by feeding them to mosquito and other pest larvae. To determine whether truncated TMOF peptides have an effect on larval growth and development, a series of peptides were synthesized and tested by feeding them to mosquito larvae at concentrations of 0.5 to 5.0 mg/ml (Table 1). Individual, newly hatched Aedes aegypti larvae were maintained in separate microtiter wells on a diet of autoclaved yeast (1 mg/ml). The diet was supplemented with TMOF peptides (Table 1). An identical number of larvae which were maintained on yeast served as a control. […] All control groups survived and larval growth and development was normal. Since larvae swallow only a small portion of the yeast particles that adsorbed the peptides, it is assumed that approximately 1 to 20 ng are taken orally at the high concentrations.

trypsin biosynthesis [1] = experiment: Injecting TMOF-R analogues into second instar Heliothis virescens: trypsin biosynthesis (BApNA); assay type: in vivo; conditions: second instar larvae, 24 hours after injection
Protocol: TMOF analogues (5 to 8 amino acids in length, and polymers of these analogues) in which Arg was added at the C-terminus were evaluated to determine their effect on larval growth and development. A series of analogues were synthesized and tested by feeding them to mosquito larvae at concentrations of (0.5 to 5.0 mg/ml; Table 4). Concentrations of 2.0 to 0.065 mg/ml were used to feed mosquito larvae and calculate the Lethal Dose at 50% mortality (LD50; Table 4) of the TMOF analogues. […] In both cases larval death and trypsin biosynthesis inhibition was noted (Table 4 and 5). […] The advantage of using short analogues connected by Arg is that they can be digested in the gut into short TMOF analogues that can penetrate the midgut much faster than longer analogues.
Individual second instar larvae of H. virescens were injected with TMOF-R analogues (10 to 0.25 μg per larva) and maintained in separate plastic cups on artificial diet. Twenty-four hours after the injections 3 groups of larvae (3 per group) were assayed for trypsin biosynthesis using BApNA (trypsin specific substrate; Table 5).

[2] = tested on: fourth instar Heliothis virescens; experiment: Feeding TMOF analogs to fourth instar H. virescens: larval weight; assay type: in vivo; conditions: fourth instar larvae fed synthetic food and 0.8 mg of TMOF analogs for 5 days
Protocol: In both cases a reduction in weight gain and trypsin inhibition was noted (Tables 3 and 4).
(§1) Larvae were fed for 5 to 14 days and larval weight and trypsin activity were measured at the end of the experimental periods. […] When first instar larvae were fed for 14 days on analogs 15 and 16 (Table 4), an 18% and 26% reduction in weight was observed.

[3] = tested on: first instar H. virescens larvae; experiment: Feeding of first instar H. virescens on TMOF analogs for 14 days; assay type: in vivo, Heliothis virescens; conditions: first instar larvae fed individually 1.6 µg of TMOF analogs for 14 days
trypsin biosynthesis [4] = experiment: Feeding TMOF analogs to fourth instar H. virescens: gut trypsin biosynthesis ([3H]DFP); assay type: in vivo, Heliothis virescens; conditions: guts of fourth instar larvae after 5 days feeding on 0.8 mg of TMOF analogs
Protocol: as §1

(D)YDP ([dY]-Asp-Pro) [43]
LD50 mM ± S.E.M. (mosquito larvae): 3 0.51 ± 0.05 mM

(D)YDPAP ([dY]DPAP) [46]
LD50 mM ± S.E.M. (mosquito larvae): 3 0.56 ± 0.03 mM

(DPAR)4
Inhibition (% ± S.E.M.) of trypsin biosynthesis (trypsin biosynthesis [1]; 0.5 μg/injection): 3 ± 0.3% | Inhibition (% ± S.E.M.) of trypsin biosynthesis (trypsin biosynthesis [1]; 1 μg/injection): 35 ± 7% | Inhibition (% ± S.E.M.) of trypsin biosynthesis (trypsin biosynthesis [1]; 10 μg/injection): 58 ± 36%

AAP (TMOF peptide) [16]
LD50 mM ± S.E.M. (mosquito larvae): 3 1.08 ± 0.07 mM

ADAAP (TMOF peptide) [56]
Weight Gain [2]: 174.1 mg | Weight mg ± S.E.M. End [2]: 209.7 ± 12 mg | Number of Dead Larvae [3]: 0 | Weight (mg) ± S.E.M. [3]: 141 ± 9 mg | Weight Reduction (%) ± S.E.M. [3]: 7 ± 0.4% | Inhibition (% ± S.E.M.) of trypsin biosynthesis (trypsin biosynthesis [4]): 5 ± 0.6% | Trypsin μg ± S.E.M. (trypsin biosynthesis [4]): 2.4 ± 0.3 µg

ADP (TMOF peptide) [17]
LD50 mM ± S.E.M. (mosquito larvae): 3 > 6.6 mM

ADPAP (TMOF peptide) [18]
LD50 mM ± S.E.M. (mosquito larvae): 4 2.0 ± 0.36 mM

APA (TMOF peptide) [19]
LD50 mM ± S.E.M. (mosquito larvae): 3 1.0 ± 0.07 mM

DAA (TMOF peptide) [20]
LD50 mM ± S.E.M. (mosquito larvae): 3 0.91 ± 0.06 mM

DPA
LD50 mM ± S.E.M. (mosquito larvae): 3 0.4 ± 0.03 mM

DPAR (TMOF-R analogue peptide) [60]
Inhibition (% ± S.E.M.) of trypsin biosynthesis (trypsin biosynthesis [1]; 1 μg/injection): 17 ± 2% | Inhibition (% ± S.E.M.) of trypsin biosynthesis (trypsin biosynthesis [1]; 10 μg/injection): 100%

DYP (TMOF peptide) [24]
LD50 mM ± S.E.M. (mosquito larvae): 4 1.27 ± 0.17 mM | Weight Gain [2]: 180.5 mg | Weight mg ± S.E.M. End [2]: 216.7 ± 13 mg | Number of Dead Larvae [3]: 1 | Weight (mg) ± S.E.M. [3]: 149 ± 9 mg | Weight Reduction (%) ± S.E.M. [3]: 9 ± 0.5% | Inhibition (% ± S.E.M.) of trypsin biosynthesis (trypsin biosynthesis [4]): 14 ± 1.8% | Trypsin μg ± S.E.M. (trypsin biosynthesis [4]): 2.2 ± 0.3 µg

FAP (TMOF peptide) [25]
LD50 mM ± S.E.M. (mosquito larvae): 3 3.8 ± 0.23 mM

FDP (TMOF peptide) [26]
LD50 mM ± S.E.M. (mosquito larvae): 3 1.98 ± 0.6 mM

FDPAP (TMOF peptide) [27]
LD50 mM ± S.E.M. (mosquito larvae): 3 0.37 ± 0.15 mM

FSP (TMOF peptide) [28]
LD50 mM ± S.E.M. (mosquito larvae): 3 2.3 ± 0.13 mM

MPDYP5 (MPDYPPPPP; TMOF peptide) [29]
LD50 mM ± S.E.M. (mosquito larvae): 3 > 3.0 mM

PAA (TMOF peptide) [30]
LD50 mM ± S.E.M. (mosquito larvae): 3 2.4 ± 0.34 mM

PAP (TMOF peptide) [31]
LD50 mM ± S.E.M. (mosquito larvae): 3 3.17 ± 0.14 mM

Y(D)DP (Tyr-[dD]-Pro) [32]
LD50 mM ± S.E.M. (mosquito larvae): 3 0.28 ± 0.01 mM

Y(D)DPAP (Y[dD]PAP) [33]
LD50 mM ± S.E.M. (mosquito larvae): 3 1.2 ± 0.3 mM | Weight Gain [2]: 153 mg | Weight mg ± S.E.M. End [2]: 188 ± 12 mg | Number of Dead Larvae [3]: 1 | Weight (mg) ± S.E.M. [3]: 152 ± 27 mg | Weight Reduction (%) ± S.E.M. [3]: 7 ± 1% | Inhibition (% ± S.E.M.) of trypsin biosynthesis (trypsin biosynthesis [4]): 15 ± 1.3% | Trypsin μg ± S.E.M. (trypsin biosynthesis [4]): 2.1 ± 0.2 µg

YAP (TMOF peptide) [34]
LD50 mM ± S.E.M. (mosquito larvae): 3 2.3 ± 0.5 mM

YAPAP (TMOF peptide) [62]
LD50 mM ± S.E.M. (mosquito larvae): 3 0.54 ± 0.13 mM
